These results are taken from patent publication US10561702B2, “Method for the treatment of skin disorders using dipeptide diaminobutyroyl benzylamide diacetate” (DSM IP ASSETS B.V., priority 2015, dated 2020).

The test system of test [1] is human sebaceous glands. Briefly: Ex vivo assay with sebaceous glands (organ culture, total lipid quantification). It counts as cell-based. The conditions noted are these: day 6; for Total fat quantification, Average (1-12): average of 12 SG test samples, untreated 17.5. The text has this: 2. Ex Vivo Assay with Sebaceous Glands (SG)
Organ culture of human sebaceous glands has been performed in order to verify the modulatory activity of H-(beta-Ala)-Pro-Dab-NH-benzyl on sebum secretion. A viability test has been performed in parallel. Human sebaceous glands from skin sample od labia minora have been used (donor). The epidermis of the full thickness sample has been carefully removed and the sebaceous glands have been micro-dissected.
The sebaceous glands have been pooled in groups of eight and cultured up to day 6. SGs are cultured in 24 well plate immersed in 500 μl of SGs medium (modified Williams'E medium). After 24 hours the culture medium has been changed and substituted with the medium containing the substance to be tested. The medium has been renewed at day 3 and 5 of culture. At day 6 the glands have been collected and used for the quantification of lipids and proteins. Briefly the SGs have been homogenized in isopropyl alcohol (IPOH) in order to extract lipids and let the protein undissolved. An aliquot of IPOH has been withdrawn to measure the lipids whereas the rest has been evaporated in a vacuum centrifuge. The remaining dry pellet has been minced again in presence of protein lysis buffer. The lipids dissolved in IPOH and the protein dissolved in the lysis buffer have been quantified by infrared spectroscopy (Millipore Direct Detect). The total lipid amount has been obtained by normalizing the quantified lipids upon the quantified proteins (i.e. mg of lipids/mg of proteins).

Test [2] deals with T1, DPP4 (Homo sapiens, UniProt P27487).
T1 construct: purchased Enzo Life Sciences
Briefly: Dipeptidyl Peptidase 4 (DPP4) protease assay (DPP4 Drug Discovery Kit, fluorogenic substrate H-Gly-Pro-AMC). It counts as biochemical. The conditions noted are these: for DPP4 activity: % activity remaining. How it is done: 1. Dipeptiyl Peptidase 4 (DPP4) Protease Assay Method
The potential of H-(beta-Ala)-Pro-Dab-NH-benzyl [CAS 823202-99-9], respectively N-Pal-Gly-His-Lys [147732-56-7]/N-Pal-Gly-Gln-Pro-Arg [221227-05-0] (2:1) to inhibit DPP4 was tested using the DPP4 Drug Discovery Kit from Enzo Life Sciences. In brief: DPP4 is pre-incubated for 10 minutes with inhibitors and then added to a quenched fluorogenic substrate (H-Gly-Pro-AMC). Cleavage of the AMC-moiety from the c-terminus of the peptide substrate by DPP4 increases its fluorescence intensity at 460 nm. The AMC signal is then recorded using a fluorescence microplate reader at Ex/Em=380/460 every minute for a total time of 20 min. A “best fit” line is generated with the data points of the first 10-20 min and the slope calculated. The remaining activity in the presence of inhibitor was calculated as follows: % activity remaining (with inhibitor)=(slope of inhibitor-sample/slope of control-sample)*100.

Several values for one entry are separate records, joined by “and”; a condition that tells them apart may be missing. Identical values can stand only once.

T1 sequence (P27487 whole entry): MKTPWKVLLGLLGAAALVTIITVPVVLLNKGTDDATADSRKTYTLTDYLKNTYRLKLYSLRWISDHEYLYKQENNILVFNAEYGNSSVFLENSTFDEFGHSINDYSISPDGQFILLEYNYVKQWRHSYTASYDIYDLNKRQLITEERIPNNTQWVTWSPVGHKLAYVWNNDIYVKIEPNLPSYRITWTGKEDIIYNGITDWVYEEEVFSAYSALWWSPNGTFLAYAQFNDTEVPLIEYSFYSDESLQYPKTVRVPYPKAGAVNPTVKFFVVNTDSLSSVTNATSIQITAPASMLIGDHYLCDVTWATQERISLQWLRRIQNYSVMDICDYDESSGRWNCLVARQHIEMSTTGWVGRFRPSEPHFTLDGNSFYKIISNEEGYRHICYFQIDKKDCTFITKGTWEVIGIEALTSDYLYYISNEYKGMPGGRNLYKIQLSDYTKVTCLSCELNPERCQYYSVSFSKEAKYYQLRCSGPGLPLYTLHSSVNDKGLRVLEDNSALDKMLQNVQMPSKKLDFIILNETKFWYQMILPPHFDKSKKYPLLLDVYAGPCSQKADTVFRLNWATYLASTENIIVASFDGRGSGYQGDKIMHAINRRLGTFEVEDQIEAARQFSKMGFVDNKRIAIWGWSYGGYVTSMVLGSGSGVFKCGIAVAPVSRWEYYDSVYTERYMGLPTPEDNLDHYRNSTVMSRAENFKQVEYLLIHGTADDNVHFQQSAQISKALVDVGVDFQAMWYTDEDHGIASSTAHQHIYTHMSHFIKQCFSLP

In the case of `COc1cc(CNC(=O)CCCC/C=C/C(C)C)ccc1O` [Capsaicin], the “Total fat quantification, Average (1-12)” value in test [1] (5 μM) came to 15.5 mg lipid/mg protein. The Total fat quantification in test [1] (5 μM, single SG test samples 1-12) was 15.8 mg lipid/mg protein and 15.7 mg lipid/mg protein and 15.5 mg lipid/mg protein and 15.6 mg lipid/mg protein and 15.4 mg lipid/mg protein and 15.3 mg lipid/mg protein and 15.1 mg lipid/mg protein.

On to H-(beta-Ala)-Pro-Dab-NH-benzyl, for which the “Total fat quantification, Average (1-12)” value in test [1] (10 μM) is reported as 14.2 mg lipid/mg protein. The DPP4 activity in test [2] (0.77 ppm / 1.56 μM) is on record as 74%; in test [2] (1.55 ppm / 3.13 μM), 58%; in test [2] (3.10 ppm / 6.25 μM), 40%; in test [2] (6.19 ppm / 12.50 μM), 24%; in test [2] (12.39 ppm / 25.00 μM), 14%; in test [2] (24.78 ppm / 50.00 μM) it was 7%. Besides, the DPP4 activity in test [2] (49.55 ppm / 100.00 μM) is recorded as 4%; in test [2] (99.10 ppm / 200.00 μM), 2%. Besides, the “Effect on DPP4 (in words)” value in test [2] (summary of tables 1 and 2) is given as “capable to inhibit DPP4”.
